Laboratory results as given in patent publication US7932266B2, “Isoquinoline derivatives as calpain inhibitors” (Consejo Superior de Investigaciones Cientificas, priority 2004, dated 2011).

What was measured:
calpain = assay: Calpain inhibition, first results on earlier isoquinoline derivatives; type: biochemical; conditions: simple derivative of isoquinoline without peptide chain; applicant's first results
[1] = biological target: T1, calpain I from porcine erythrocyte (Sus scrofa, UniProt P35750); assay: Enzyme activity test: inhibition of calpain (fluorimetric, BODIPY-FL casein substrate); type: biochemical; conditions: 7 inhibitor concentrations between 10 nM and 200 μM
T1 construct: calpain I from porcine erythrocyte (Calbiochem, Cat No 208712) was used as enzyme; purchased Calbiochem 208712; host or cells: porcine erythrocyte (natural source)
T1 sequence (P35750 1-714): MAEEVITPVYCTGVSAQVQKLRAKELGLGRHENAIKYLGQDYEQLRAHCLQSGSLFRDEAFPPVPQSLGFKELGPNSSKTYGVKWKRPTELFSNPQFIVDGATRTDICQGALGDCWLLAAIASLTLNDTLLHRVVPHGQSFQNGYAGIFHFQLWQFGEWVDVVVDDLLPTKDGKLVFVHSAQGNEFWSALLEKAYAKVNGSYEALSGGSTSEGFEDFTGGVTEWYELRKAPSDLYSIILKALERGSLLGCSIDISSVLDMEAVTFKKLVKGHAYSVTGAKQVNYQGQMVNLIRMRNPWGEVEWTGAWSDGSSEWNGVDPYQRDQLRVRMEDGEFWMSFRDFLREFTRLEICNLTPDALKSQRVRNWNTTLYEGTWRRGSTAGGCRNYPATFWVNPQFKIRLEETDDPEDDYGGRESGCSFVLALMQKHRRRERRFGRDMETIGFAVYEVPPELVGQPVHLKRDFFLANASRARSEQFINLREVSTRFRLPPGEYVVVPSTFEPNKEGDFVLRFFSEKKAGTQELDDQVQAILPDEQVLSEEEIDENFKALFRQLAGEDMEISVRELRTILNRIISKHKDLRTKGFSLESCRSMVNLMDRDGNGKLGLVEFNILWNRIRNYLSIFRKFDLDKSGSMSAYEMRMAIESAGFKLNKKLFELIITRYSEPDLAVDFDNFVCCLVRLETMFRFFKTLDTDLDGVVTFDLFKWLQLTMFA
T1 sequence (P04574 1-266 partner): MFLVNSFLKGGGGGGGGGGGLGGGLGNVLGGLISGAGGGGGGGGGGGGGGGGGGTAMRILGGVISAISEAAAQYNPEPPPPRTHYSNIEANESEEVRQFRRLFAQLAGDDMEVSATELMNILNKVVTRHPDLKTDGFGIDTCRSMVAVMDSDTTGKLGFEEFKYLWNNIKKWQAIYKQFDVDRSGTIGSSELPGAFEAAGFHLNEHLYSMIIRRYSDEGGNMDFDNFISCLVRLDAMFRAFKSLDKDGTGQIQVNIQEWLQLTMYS
From the text: The capacity to inhibit calpain has been quantified in terms of the value of IC50, which is defined as the concentration of inhibitor that reduces the catalytic activity of an enzyme by half. The lower the value of IC50, the more powerful the inhibitor. Inhibition results on calpain I (the most relevant from a physiological point of view) of some compounds of the present invention are shown in table 1 and in FIG. 1. Given that calpain II, also known as milli-calpain, needs a greater amount of Ca^2+ for activation, it might not possibly have such a relevant physiological role since such a concentration of Ca^2+ would cause cell death before the milli-calpain could become activated. For this reason, the inhibition tests have been performed for calpain I, though they can be extrapolated for calpain II.
The calpain inhibition capacity has been quantified in terms of the value of IC50, which is defined as the concentration of inhibitor that reduces the catalytic activity of an enzyme by half. The lower the value of IC50, the more powerful the inhibitor. Inhibition results on calpain I (the most relevant from a physiological point of view) of some compounds of the present invention are shown in table 1 and in FIG. 1.
The experiments were conducted spectrofluorimetrically using a Spectrofluor Tecan Corp 93382 spectrofluorimeter, exciting at […] and measuring at […]. Casein marked with BODIPY-FL® (Molecular Probes) was used as substrate and calpain I from porcine erythrocyte (Calbiochem, Cat No 208712) was used as enzyme. The freeze-dried substrate is component A of the protease assay kit EnzChek® green fluorescence from Molecular Probes (reference # E-6638); component B, known as 20× digestion buffer, contains 13 mL of 200 mM Tris-HCl, pH 7.8 and 2 mM sodium azide. The commercial calpain I that was used has a concentration of 1 mg in 1 mL of aqueous solution (the solution is 20 mM imidazol-HCl, pH 6.8, 1 mM EDTA, 1 mM EGTA, 5 mM β-mercaptoethanol, containing 30% glycerine).
2.5 mL of 20× digestion buffer (component B of the kit from Molecular Probes) was diluted with water to a total volume of 50 mL.
200 μg of freeze-dried substrate (component A of the kit from Molecular Probes) was dissolved in 200 μL of phosphate saline buffer. This solution was decanted into a graduated flask and diluted with the digestion solution to a total volume of 40 mL.
20 μL of commercial solution of calpain was diluted with the digestion solution to a total volume of 200 μL.
The inhibitor was dissolved in DMSO. Each inhibitor was assayed at 7 different concentrations between 10 nM and 200 μM.
All the data were obtained measuring the variation in fluorescence with time. The use of a multi-cell device and Eppendorf multi-channel pipettes permitted measurement of the variation in fluorescence in up to 64 experiments. In this way, the control experiment and the experiments with the different concentrations of inhibitor was carried out in the same set of measurements. All the experiments were conducted twice.
The control experiment was carried out mixing 180 μL of casein solution and 5 μL of calpain solution. The reaction was initiated by the addition of 10 μL of a 50 μM solution of CaCl2 in water, and the fluorescence was measured from the moment of the addition of Ca^2+ (time=0) and for 250-300 seconds (measuring during 20 kinetic cycles). The variation in fluorescence (ΔF) was represented against time (t). In order to test the effect of DMSO on enzyme activity, additional control experiments were conducted adding DMSO (in the quantities used in the experiments with the inhibitors), with the same result being obtained as in the control experiment.
180 μL of casein solution, 5 μL of calpain solution and 5 μL of inhibitor solution (of variable concentration) were mixed together. […]

Row | melting point | IC50 [1] | Structure (SMILES) | activity as calpain inhibitor (calpain)
1 | 151 to 154 °C | 0.159 µM | CC[C@H](C)[C@H](NC(=O)/C=C1/c2ccccc2C(=O)N[C@H]1[C@@H](C)CC)C(=O)N[C@H](C(=O)N[C@H](C(=O)OC)[C@@H](C)CC)[C@@H](C)CC [Compound 26, methyl (S,S,S,S,S,S,S,S,S,Z)-2-(2-{2-[2-(3-sec-butyl-1-oxo-2,3-dihydro-1H-isoquinolin-4-yliden)-acetylamino]-3-methyl-pentanoylamino}-3-methyl-pentanoylamino)-3-methyl-pentanoate] | 
2 | 174 to 176 °C | 0.626 µM | CC[C@H](C)[C@@H]1NC(=O)c2ccccc2/C1=C/C(=O)N[C@H](C(=O)N[C@@H](Cc1ccccc1)C(=O)OC)C(C)C [Compound 27, methyl (S,S,S,S,Z)-2-{2-[2-(3-sec-butyl-1-oxo-2,3-dihydro-1H-isoquinolin-4-yliden)-acetylamino]-3-methyl-butirylamino}-3-phenyl-propionate] | 

The remaining lines, values behind:

Row | Structure (SMILES) | melting point | IC50 [1] | activity as calpain inhibitor (calpain)
3 | COC(=O)/C=C1/c2ccccc2C(=O)N[C@H]1C(C)C [Compound 3] |  |  | not calpain inhibitors
4 | CC[C@H](C)[C@@H]1NC(=O)c2ccccc2/C1=C/C(=O)Nc1ccccc1-c1ccccc1NC(=O)[C@@H](N)C(C)C [Compound 22, (S,S,S,Z)-2-amino-N-{2′-[2-(3-sec-butyl-1-oxo-2,3-dihydro-1H-isoquinolin-4-yliden)-acetylamino]-biphenyl-2-yl}-3-methyl-butyramide] | 110 to 113 °C | 17 µM | 
5 | CC[C@H](C)[C@@H]1NC(=S)c2ccccc2/C1=C/C(=O)OC [Compound 28, methyl (S,S,Z)-(3-sec-butyl-1-thioxo-2,3-dihydro-1H-isoquinolin-4-yliden)-acetate] | 50 to 53 °C | 38 µM | 
